From the supplement of paper PMC10307832

Columns and labels:
Assay in all cases: relative viability (nuclei count vs DMSO), 5 days (fraction); higher = more cells survive
[1] = compound: CS(=O)(=O)N1CCN(Cc2cc3nc(-c4cccc5[nH]ncc45)nc(N4CCOCC4)c3s2)CC1 [Pictilisib] + CC(=O)c1c(C)c2cnc(Nc3ccc(N4CCNCC4)cn3)nc2n(C2CCCC2)c1=O [Palbociclib] (partner 0.5 µM)
How it was run: (§1)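 Values are medians from duplicate plates. Each reflects relative viability, defined as the nuclei count of treated wells over that of vehicle wells. Lung cancer cell lines in 1536-well plates were pin-tool dosed one day after seeding with one drug alone or with a fixed anchor-drug dose plus five library-drug doses (not always all listed) in √10 steps, then fixed, stained and imaged at 4× after 5 days.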

[2] = compound: CS(=O)(=O)N1CCN(Cc2cc3nc(-c4cccc5[nH]ncc45)nc(N4CCOCC4)c3s2)CC1 [Pictilisib] + CC1(C)CCC(c2ccc(Cl)cc2)=C(CN2CCN(c3ccc(C(=O)NS(=O)(=O)c4ccc(N[C@H](CCN5CCOCC5)CSc5ccccc5)c(S(=O)(=O)C(F)(F)F)c4)cc3)CC2)C1 [Navitoclax] (partner 0.5 µM)
How it was run: as §1

[3] = compound: NC1(c2ccc(-c3nc4ccn5c(=O)[nH]nc5c4cc3-c3ccccc3)cc2)CCC1 [MK-2206] + CC1(C)CCC(c2ccc(Cl)cc2)=C(CN2CCN(c3ccc(C(=O)NS(=O)(=O)c4ccc(N[C@H](CCN5CCOCC5)CSc5ccccc5)c(S(=O)(=O)C(F)(F)F)c4)cc3)CC2)C1 [Navitoclax] (partner 0.5 µM)
How it was run: as §1

[4] = compound: NC1(c2ccc(-c3nc4ccn5c(=O)[nH]nc5c4cc3-c3ccccc3)cc2)CCC1 [MK-2206] + Cc1cc(Nc2cc(N3CCN(C)CC3)nc(Sc3ccc(NC(=O)C4CC4)cc3)n2)n[nH]1 [Tozasertib] (partner 0.1 µM)
How it was run: as §1

Cell Line	relative viability ([1]; first compound 0.02 µM)	relative viability ([1]; first compound 0.06325 µM)	relative viability ([1]; first compound 0.6325 µM)	relative viability ([1]; first compound 2 µM)	relative viability ([2]; first compound 0.02 µM)	relative viability ([2]; first compound 0.06325 µM)	relative viability ([2]; first compound 0.6325 µM)	relative viability ([2]; first compound 2 µM)	relative viability ([3]; first compound 0.01 µM)	relative viability ([3]; first compound 0.03162 µM)	relative viability ([3]; first compound 0.3162 µM)	relative viability ([3]; first compound 1 µM)	relative viability ([4]; first compound 0.01 µM)	relative viability ([4]; first compound 0.03162 µM)	relative viability ([4]; first compound 0.3162 µM)	relative viability ([4]; first compound 1 µM)
CAL-12T	0.385	0.604	0.457	0.167	1.29	1.24	1.2	1.07	0.963	1.32	1.22	1.14	0.289	0.304	0.317	0.327
PC-14	0.488	0.564	0.507	0.334	1.03	1.06	1.06	0.739	0.956	1.05	1.1	1.01	0.593	0.653	0.587	0.642
NCI-H1915	0.524	0.542	0.5	0.471	0.811	0.789	0.797	0.789	0.813	0.83	0.835	0.784	0.486	0.431	0.432	0.394
NCI-H647	0.365	0.419	0.254	0.144	1.27	1.03	0.928	0.351	1.02	1.21	0.969	1.02	0.316	0.377	0.289	0.233
NCI-H322M	0.496	0.495	0.448	0.415	1.23	1.22	0.956	1.14	1.14	1.13	1.25	1.1	0.455	0.552	0.449	0.455
NCI-H2170	0.351	0.375	0.266	0.165	0.619	0.487	0.452	0.231	0.65	0.485	0.546	0.512	0.789	0.717	0.659	0.763
BEN	0.442	0.488	0.443	0.439	0.0665	0.0632	0.0606	0.0433	0.069	0.0836	0.0745	0.0466	0.554	0.621	0.416	0.443
NCI-H2009	0.149	0.175	0.165	0.125	1.16	1.19	1.15	0.958	1.12	1.15	1.17	1.13	0.657	0.674	0.677	0.639
LC-2-ad	0.486	0.532	0.298	0.265	0.606	0.415	0.17	0.143	0.423	0.506	0.288	0.3	0.42	0.484	0.525	0.44
NCI-H1437	0.309	0.337	0.401	0.216	1.16	1.14	1.04	0.677	1.07	1.16	1.18	1.09	0.408	0.425	0.396	0.349
NCI-H3122	0.181	0.194	0.176	0.139	0.986	1.04	0.966	0.475	1.02	1.03	1.01	0.958	0.366	0.39	0.469	0.169
NCI-H727	0.595	0.65	0.541	0.496	0.55	0.433	0.303	0.156	0.424	0.367	0.212	0.314	0.578	0.659	0.559	0.626
NCI-H1734	0.303	0.338	0.281	0.192	0.797	0.874	0.554	0.264	0.848	0.85	0.584	0.681	0.28	0.244	0.261	0.252
HCC-15	0.682	0.704	0.678	0.475	0.634	0.644	0.601	0.328	0.687	0.622	0.617	0.62	0.397	0.394	0.28	0.235
NCI-H2405	0.579	0.536	0.474	0.374	0.981	0.871	0.594	0.5	0.838	1.06	0.83	0.779	0.818	0.799	0.662	0.635
NCI-H1993	0.573	0.622	0.497	0.37	0.943	0.845	0.664	0.637	0.901	0.801	0.678	0.649	0.611	0.542	0.541	0.525

Cell Line	relative viability ([1]; first compound 0.02 µM)	relative viability ([1]; first compound 0.06325 µM)	relative viability ([1]; first compound 0.6325 µM)	relative viability ([1]; first compound 2 µM)	relative viability ([2]; first compound 0.02 µM)	relative viability ([2]; first compound 0.06325 µM)	relative viability ([2]; first compound 0.6325 µM)	relative viability ([2]; first compound 2 µM)	relative viability ([3]; first compound 0.01 µM)	relative viability ([3]; first compound 0.03162 µM)	relative viability ([3]; first compound 0.3162 µM)	relative viability ([3]; first compound 1 µM)	relative viability ([4]; first compound 0.01 µM)	relative viability ([4]; first compound 0.03162 µM)	relative viability ([4]; first compound 0.3162 µM)	relative viability ([4]; first compound 1 µM)
NCI-H1650	0.381	0.334	0.223	0.193	1.21	1.19	0.828	0.31	1.11	1	1.06	1.02	0.364	0.377	0.408	0.346
NCI-H460	0.185	0.161	0.111	0.0339	1.15	1.07	0.563	0.201	1.16	1.16	1.21	1.07	0.362	0.691	0.601	0.665
NCI-H1651	0.518	0.499	0.496	0.378	1.02	0.926	0.9	0.53	0.994	1.05	1.02	0.998	0.623	0.667	0.665	0.59
NCI-H1975	0.553	0.544	0.342	0.143	1.02	0.936	0.707	0.314	1.05	0.969	0.938	0.787	0.798	0.66	0.573	0.535
NCI-H2126	0.357	0.317	0.32	0.341	0.855	0.836	0.747	0.636	0.821	0.814	0.782	0.793	0.814	0.897	0.822	0.775
201T	0.332	0.377	0.332	0.284	1.23	1.18	1.24	0.792	1.23	1.28	1.23	1.21	0.962	0.931	0.98	0.948
HCC-78	0.566	0.481	0.403	0.361	0.809	0.594	0.45	0.231	0.735	0.875	0.732	0.488	1.52	–	0.38	0.365
SK-LU-1	0.401	0.382	0.307	0.31	0.972	1.04	0.624	0.41	1.01	0.992	1.08	0.874	0.212	0.334	0.376	0.291
H3255	0.314	0.375	0.297	0.292	0.626	0.516	0.498	0.173	0.519	0.579	0.439	0.312	0.773	0.663	0.511	0.703
LOU-NH91	0.524	0.546	0.563	0.514	0.822	0.735	0.573	0.408	0.702	0.745	0.749	0.621	0.693	0.727	0.658	0.645
NCI-H1666	0.606	0.713	0.668	0.607	0.972	0.835	0.62	0.438	0.953	0.927	0.81	0.655	0.636	0.631	0.647	0.594
SK-MES-1	0.326	0.302	0.346	0.262	1.21	1.19	0.89	0.431	1.29	1.2	1.01	1.1	0.813	0.847	0.885	0.794
NCI-H2023	0.339	0.33	0.161	0.148	0.959	0.965	0.734	0.313	0.985	1.06	0.895	0.716	0.345	0.347	0.239	0.197
COR-L 105	0.429	0.477	0.423	0.399	0.739	0.77	0.679	0.521	0.82	0.741	0.815	0.481	0.419	0.309	0.403	0.345
NCI-H838	0.191	0.206	0.174	0.124	1.12	1.04	1.01	0.61	1.15	1.19	1.19	1.04	0.286	0.259	0.26	0.253
SW 1573	0.417	0.345	0.207	0.191	0.804	0.951	0.742	0.348	0.876	0.937	0.714	0.737	0.242	0.152	0.175	0.127
